Reference: patent publication US20240327381A1, “Compounds and Compositions for Selective Degradation of Engineered Proteins” (Celgene Corporation, priority 2023, published 2024)
Read-outs that look alike come from different tables or passages of the source.

Columns and labels:
[1] = target: T1, IKZF1 ZNF2_ZNF3 Q1F degron-tagged CD19 CAR (Homo sapiens, UniProt Q13422, Q146F); experiment: Degradation of Q1F degron-tagged CD19 CAR in Jurkat cells (flow cytometry of CAR levels); format: cell-based; details: for DC50: Jurkat cells expressing CD19 CAR tagged with IKZF1 ZNF2_ZNF3 Q1F, 18 hours at 37° C., CAR levels normalized to untreated cells, read-out: Q1F Jurkat IC50; for Dmax: read-out: Q1F Jurkat-YMax
T1 construct: ZNF2_ZNF3 Q1F degron (GERPFFCNQCGASFTQKGNLLRHIKLHSGEKPFKCHLCNYACRRRDALTGHLRTHS); fused on or other part: anti-CD19 scFv, CD28 transmembrane domain, 4-1BB costimulatory domain, CD3 zeta signaling domain (the CAR that carries the degron), and Nluc
Procedure, shortened: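 Jurkat cells were lentivirally transduced with an anti-CD19 scFv/CD28 TM/4-1BB/CD3ζ CAR tagged with an IKZF1 ZNF2_ZNF3 Q1F degron–Nluc, then treated with compound titrations for 18 h at 37 °C. CAR surface levels were stained (20 min, 4 °C), read by flow cytometry and normalised to untreated cells. EC50 came from a four-parameter logistic fit; Ymin is the minimum % CAR remaining.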

Helios = target: T2, Helios (Homo sapiens, UniProt Q9UKS7); experiment: Helios degradation in Jurkat/Helios/HiBit cells (Nano-Glo luminescence); format: cell-based; details: 18 hr, read-out: Helios Jurkat Hibit IC50
T2 construct: endogenous in cells; host or cells: Jurkat cells, CRISPR/Cas9 knock-in of HiBit at the IKZF2 locus
Procedure, shortened: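 Jurkat cells carrying CRISPR-knocked-in C-terminal HiBit-tagged endogenous IKZF2 were treated with compound in DMEM/10% FCS (10,000 cells/well) for 18 h at 37 °C. HiBit signal was read by Nano-Glo luminescence after 30 min at RT. EC50 for degradation came from a four-parameter logistic fit, with Ymax as % protein degraded.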

[2] = Ymax is the % protein degraded, Jurkat cells expressing Q1F degron-tagged CD19 CAR, 18 hours

T2 sequence (Q9UKS7 whole entry): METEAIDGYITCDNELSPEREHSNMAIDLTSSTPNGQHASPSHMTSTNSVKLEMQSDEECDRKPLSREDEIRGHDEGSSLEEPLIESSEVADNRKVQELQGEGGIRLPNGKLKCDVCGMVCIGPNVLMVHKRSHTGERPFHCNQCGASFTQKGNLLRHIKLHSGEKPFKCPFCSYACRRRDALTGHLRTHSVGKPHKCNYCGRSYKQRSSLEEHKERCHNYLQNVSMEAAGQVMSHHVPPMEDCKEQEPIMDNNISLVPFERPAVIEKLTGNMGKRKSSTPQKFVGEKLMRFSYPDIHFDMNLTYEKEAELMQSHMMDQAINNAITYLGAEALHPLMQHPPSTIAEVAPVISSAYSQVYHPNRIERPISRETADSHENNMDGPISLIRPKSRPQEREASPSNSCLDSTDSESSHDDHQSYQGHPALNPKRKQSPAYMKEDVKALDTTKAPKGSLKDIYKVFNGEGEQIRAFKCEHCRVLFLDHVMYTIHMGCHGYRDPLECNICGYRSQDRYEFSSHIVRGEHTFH
T2 sequence (Q96SW2 whole entry, further chain): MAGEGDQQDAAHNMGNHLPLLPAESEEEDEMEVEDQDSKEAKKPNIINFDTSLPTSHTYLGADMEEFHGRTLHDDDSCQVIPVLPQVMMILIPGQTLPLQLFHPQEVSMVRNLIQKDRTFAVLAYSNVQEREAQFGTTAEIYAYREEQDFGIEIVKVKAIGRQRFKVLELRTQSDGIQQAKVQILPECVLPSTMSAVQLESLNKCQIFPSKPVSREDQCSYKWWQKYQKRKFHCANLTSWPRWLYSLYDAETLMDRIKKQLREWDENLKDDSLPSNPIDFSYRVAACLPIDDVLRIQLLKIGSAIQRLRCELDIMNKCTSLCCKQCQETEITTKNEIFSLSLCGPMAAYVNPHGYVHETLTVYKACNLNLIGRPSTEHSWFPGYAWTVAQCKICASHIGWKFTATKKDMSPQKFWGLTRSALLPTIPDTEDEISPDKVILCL
T2 sequence (Q16531 whole entry partner): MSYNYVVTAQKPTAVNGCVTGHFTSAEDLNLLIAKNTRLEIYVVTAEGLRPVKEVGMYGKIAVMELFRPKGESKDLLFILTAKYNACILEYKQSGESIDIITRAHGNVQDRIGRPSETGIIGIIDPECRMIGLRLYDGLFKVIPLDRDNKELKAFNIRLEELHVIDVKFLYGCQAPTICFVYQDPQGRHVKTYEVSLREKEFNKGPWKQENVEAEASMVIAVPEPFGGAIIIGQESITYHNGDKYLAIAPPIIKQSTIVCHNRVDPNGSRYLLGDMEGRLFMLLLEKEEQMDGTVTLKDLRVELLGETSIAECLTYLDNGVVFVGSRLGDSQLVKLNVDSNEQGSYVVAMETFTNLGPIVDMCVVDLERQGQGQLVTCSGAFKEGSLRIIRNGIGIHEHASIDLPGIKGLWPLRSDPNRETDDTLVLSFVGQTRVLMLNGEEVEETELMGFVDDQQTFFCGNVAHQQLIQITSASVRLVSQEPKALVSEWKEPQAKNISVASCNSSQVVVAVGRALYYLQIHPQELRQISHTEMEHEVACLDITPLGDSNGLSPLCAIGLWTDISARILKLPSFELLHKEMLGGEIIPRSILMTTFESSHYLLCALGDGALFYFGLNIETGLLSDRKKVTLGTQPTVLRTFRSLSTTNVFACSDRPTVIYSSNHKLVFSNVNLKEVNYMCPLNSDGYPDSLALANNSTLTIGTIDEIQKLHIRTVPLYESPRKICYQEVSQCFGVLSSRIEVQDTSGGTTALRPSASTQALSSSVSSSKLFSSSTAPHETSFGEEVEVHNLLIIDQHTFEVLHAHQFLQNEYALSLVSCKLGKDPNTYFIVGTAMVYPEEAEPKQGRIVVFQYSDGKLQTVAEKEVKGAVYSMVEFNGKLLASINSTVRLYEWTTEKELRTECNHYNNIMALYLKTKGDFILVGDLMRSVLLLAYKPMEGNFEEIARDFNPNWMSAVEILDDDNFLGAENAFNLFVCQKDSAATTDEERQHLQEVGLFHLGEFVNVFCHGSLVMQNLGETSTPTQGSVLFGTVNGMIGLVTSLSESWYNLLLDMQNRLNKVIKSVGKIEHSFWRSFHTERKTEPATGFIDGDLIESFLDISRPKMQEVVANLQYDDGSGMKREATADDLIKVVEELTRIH
T1 sequence (Q13422 whole entry Q146F, the tested form may be a part): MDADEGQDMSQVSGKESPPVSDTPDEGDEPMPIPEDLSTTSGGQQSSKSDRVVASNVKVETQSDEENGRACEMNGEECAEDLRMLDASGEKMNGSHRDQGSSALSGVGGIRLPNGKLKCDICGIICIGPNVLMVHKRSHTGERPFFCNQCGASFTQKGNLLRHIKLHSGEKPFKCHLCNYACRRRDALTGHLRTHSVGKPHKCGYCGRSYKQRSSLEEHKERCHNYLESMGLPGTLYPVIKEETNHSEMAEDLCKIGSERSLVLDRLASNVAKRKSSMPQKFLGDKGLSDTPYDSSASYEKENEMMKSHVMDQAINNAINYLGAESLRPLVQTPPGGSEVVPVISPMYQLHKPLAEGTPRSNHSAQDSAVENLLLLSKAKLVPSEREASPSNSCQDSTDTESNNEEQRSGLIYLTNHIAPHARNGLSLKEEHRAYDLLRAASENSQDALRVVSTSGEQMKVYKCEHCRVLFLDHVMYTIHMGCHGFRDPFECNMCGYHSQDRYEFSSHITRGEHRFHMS

With `Cc1cc(Br)cnc1C(=O)N1CCC(c2c(F)cc3c(c2F)CN(C2CCC(=O)NC2=O)C3=O)CC1` (stereo not drawn) [Compound 66, 3-(5-(1-(5-bromo-3-methylpicolinoyl)piperidin-4-yl)-4,6-difluoro-1-oxoisoindolin-2-yl) piperidine-2,6-dione] the DC50 [1] was 46.1 nM, the Dmax [1, 2] was 74.9% and the DC50 (Helios) was ≥ 10000 nM.
`O=C1CCC(N2Cc3c(cc(F)c(C4CCN(CC5CCCCC5)CC4)c3F)C2=O)C(=O)N1` (stereo not drawn) [Compound 67, 3-(5-(1-(cyclohexylmethyl)piperidin-4-yl)-4,6-difluoro-1-oxoisoindolin-2-yl)piperidine-2,6-dione] was tested, and the DC50 [1] was 0.563 nM, the Dmax [1, 2] was 89% and the DC50 (Helios) was ≥ 10000 nM.
For `Cc1cc(Br)cnc1CN1CCCC(c2c(F)cc3c(c2F)CN(C2CCC(=O)NC2=O)C3=O)C1` (stereo not drawn) [Compound 68, 3-(5-(1-((5-bromo-3-methylpyridin-2-yl)methyl)piperidin-3-yl)-4,6-difluoro-1-oxoisoindolin-2-yl)piperidine-2,6-dione], the DC50 [1] was 50.5 nM, the Dmax [1, 2] was 63.5% and the DC50 (Helios) was ≥ 10000 nM.
`O=C1CCC(N2Cc3c(cc(F)c(CNC(=O)c4cc5ccccn5c4)c3F)C2=O)C(=O)N1` (stereo not drawn) [Compound 69, N-[[2-(2,6-dioxo-3-piperidyl)-4,6-difluoro-1-oxo-isoindolin-5-yl]methyl]indolizine-2-carboxamide] was tested, and the DC50 [1] was 35.2 nM, the Dmax [1, 2] was 53.9% and the DC50 (Helios) was ≥ 10000 nM.
`N#Cc1ccc2c(c1)CN(C(=O)c1c(F)cc3c(c1F)CN(C1CCC(=O)NC1=O)C3=O)CC2` (stereo not drawn) [Compound 70, 2-[2-(2,6-dioxo-3-piperidyl)-4,6-difluoro-1-oxo-isoindoline-5-carbonyl]-3,4-dihydro-1H-isoquinoline-7-carbonitrile] was tested, and the DC50 [1] was 15 nM, the Dmax ([1]; Jurkat, 18 h) was 95.5% and the DC50 (Helios) was ≥ 10000 nM.
For `O=C1CCC(N2Cc3c(cc(F)c(C(=O)N4CCc5c(Cl)cccc5C4)c3F)C2=O)C(=O)N1` (stereo not drawn) [Compound 71, 3-[5-(5-chloro-3,4-dihydro-1H-isoquinoline-2-carbonyl)-4,6-difluoro-1-oxo-isoindolin-2-yl]piperidine-2,6-dione], the DC50 [1] was 23.7 nM, the Dmax [1, 2] was 95.7% and the DC50 (Helios) was ≥ 10000 nM.
For `O=C1CCC(N2Cc3c(cc(F)c(C(=O)N4CCc5cc(F)c(F)cc5C4)c3F)C2=O)C(=O)N1` (stereo not drawn) [Compound 72, 3-[5-(6,7-difluoro-3,4-dihydro-1H-isoquinoline-2-carbonyl)-4,6-difluoro-1-oxo-isoindolin-2-yl]piperidine-2,6-dione], the DC50 [1] was 21.2 nM, the Dmax [1, 2] was 92.5% and the DC50 (Helios) was ≥ 10000 nM.
For `CNc1ccc2c(n1)CN(C(=O)c1c(F)cc3c(c1F)CN(C1CCC(=O)NC1=O)C3=O)C2` (stereo not drawn) [Compound 73, 3-[4,6-difluoro-5-[2-(methylamino)-5,7-dihydropyrrolo[3,4-b]pyridine-6-carbonyl]-1-oxo-isoindolin-2-yl]piperidine-2,6-dione], the DC50 [1] was 3.11 nM, the Dmax ([1]; Jurkat, 18 h) was 95.3% and the DC50 (Helios) was ≥ 10000 nM.
`O=C1CCC(N2Cc3c(cc(F)c(C(=O)Nc4nccn4C4CCC4)c3F)C2=O)C(=O)N1` (stereo not drawn) [Compound 74, N-(1-cyclobutyl-1H-imidazol-2-yl)-2-(2,6-dioxopiperidin-3-yl)-4,6-difluoro-1-oxoisoindoline-5-carboxamide] was tested, and the DC50 [1] was 108 nM, the Dmax [1, 2] was 74.9% and the DC50 (Helios) was ≥ 10000 nM.
In the case of `O=C1CCC(N2Cc3c(cc(F)c(C(=O)N4Cc5cccnc5C4)c3F)C2=O)C(=O)N1` (stereo not drawn) [Compound 77, 3-(5-(6,7-dihydro-5H-pyrrolo[3,4-b]pyridine-6-carbonyl)-4,6-difluoro-1-oxoisoindolin-2-yl)piperidine-2,6-dione], the DC50 [1] is reported as 14.8 nM, the Dmax [1, 2] is reported as 94.8% and the DC50 (Helios) is reported as ≥ 10000 nM.
For `O=C1CCC(N2Cc3c(cc(F)c(CNC(=O)C4CCC(C(F)(F)F)CC4)c3F)C2=O)C(=O)N1` (stereo not drawn) [Compound 78, N-((2-(2,6-dioxopiperidin-3-yl)-4,6-difluoro-1-oxoisoindolin-5-yl)methyl)-4-(trifluoromethyl)cyclohexane-1-carboxamide], the DC50 [1] was 24.5 nM, the Dmax [1, 2] was 61.7% and the DC50 (Helios) was ≥ 10000 nM.
With `O=C1CCC(N2Cc3c(cc(F)c(CNCc4ccc(C(F)F)cc4)c3F)C2=O)C(=O)N1` (stereo not drawn) [Compound 79, 3-(5-(((4-(difluoromethyl)benzyl)amino)methyl)-4,6-difluoro-1-oxoisoindolin-2-yl)piperidine-2,6-dione] the DC50 [1] was 162 nM, the Dmax [1, 2] was 60% and the DC50 (Helios) was ≥ 10000 nM.
For `CN(CCN1CCC(c2cc3c(cc2F)C(=O)N(C2CCC(=O)NC2=O)C3)CC1)Cc1ccccc1` (stereo not drawn) [Compound 80, 3-(5-(1-(2-(benzyl(methyl)amino)ethyl)piperidin-4-yl)-6-fluoro-1-oxoisoindolin-2-yl)piperidine-2,6-dione], the DC50 [1] was 0.533 nM, the Dmax [1, 2] was 85.1% and the DC50 (Helios) was ≥ 10000 nM.
With `O=C1CCC(N2Cc3cc(C4CCN(Cc5ccc6ncsc6c5)CC4)c(F)cc3C2=O)C(=O)N1` (stereo not drawn) [Compound 81, 3-(5-(1-(benzo[d]thiazol-6-ylmethyl)piperidin-4-yl)-6-fluoro-1-oxoisoindolin-2-yl) piperidine-2,6-dione] the DC50 [1] was 3.06 nM, the Dmax [1, 2] was 93% and the DC50 (Helios) was ≥ 10000 nM.
In the case of `O=C1CCC(N2Cc3cc(C4CCN(CC5CCCCC5)CC4)c(F)cc3C2=O)C(=O)N1` (stereo not drawn) [Compound 82, 3-(5-(1-(cyclohexylmethyl)piperidin-4-yl)-6-fluoro-1-oxoisoindolin-2-yl)piperidine-2,6-dione], the DC50 [1] is reported as 1.72 nM, the Dmax [1, 2] is reported as 88.2% and the DC50 (Helios) is reported as ≥ 10000 nM.
With `O=C1CCC(N2Cc3cc(C4CCN(Cc5nc6ccccc6s5)CC4)c(F)cc3C2=O)C(=O)N1` (stereo not drawn) [Compound 83, 3-(5-(1-(benzo[d]thiazol-2-ylmethyl)piperidin-4-yl)-6-fluoro-1-oxoisoindolin-2-yl)piperidine-2,6-dione] the DC50 [1] was 19.9 nM, the Dmax [1, 2] was 76.8% and the DC50 (Helios) was ≥ 10000 nM.
For `Cc1ccc(CN2CCC(c3cc4c(cc3F)C(=O)N(C3CCC(=O)NC3=O)C4)CC2)cc1` (stereo not drawn) [Compound 84, 3-(6-fluoro-5-(1-(4-methylbenzyl)piperidin-4-yl)-1-oxoisoindolin-2-yl)piperidine-2,6-dione], the DC50 [1] was 2.1 nM, the Dmax [1, 2] was 90.3% and the DC50 (Helios) was ≥ 10000 nM.
In the case of `O=C1CCC(N2Cc3cc(C4CCN(Cc5ccc(C(F)(F)F)cc5)CC4)c(F)cc3C2=O)C(=O)N1` (stereo not drawn) [Compound 85, 3-(6-fluoro-1-oxo-5-(1-(4-(trifluoromethyl)benzyl)piperidin-4-yl)isoindolin-2-yl) piperidine-2,6-dione], the DC50 [1] is reported as 1.53 nM, the Dmax ([1]; Jurkat, 18 h) is reported as 89.3% and the DC50 (Helios) is reported as ≥ 10000 nM.
`O=C1CCC(N2Cc3cc(C4CCN(Cc5ccc6scnc6c5)CC4)c(F)cc3C2=O)C(=O)N1` (stereo not drawn) [Compound 86, 3-(5-(1-(benzo[d]thiazol-5-ylmethyl)piperidin-4-yl)-6-fluoro-1-oxoisoindolin-2-yl)piperidine-2,6-dione] was tested, and the DC50 [1] was 1.94 nM, the Dmax [1, 2] was 92.1% and the DC50 (Helios) was ≥ 10000 nM.
With `O=C1CCC(N2Cc3cc(C4CCN(Cc5ccc6cn[nH]c6c5)CC4)c(F)cc3C2=O)C(=O)N1` (stereo not drawn) [Compound 87, 3-(5-(1-((1H-indazol-6-yl)methyl)piperidin-4-yl)-6-fluoro-1-oxoisoindolin-2-yl)piperidine-2,6-dione] the DC50 [1] was 4.06 nM, the Dmax [1, 2] was 94.2% and the DC50 (Helios) was ≥ 10000 nM.
In the case of `O=C1CCC(N2Cc3cc(C4CCN(Cc5ccc6c(c5)CCC6)CC4)c(F)cc3C2=O)C(=O)N1` (stereo not drawn) [Compound 88, 3-(5-(1-((2,3-dihydro-1H-inden-5-yl)methyl)piperidin-4-yl)-6-fluoro-1-oxoisoindolin-2-yl)piperidine-2,6-dione], the DC50 [1] is reported as 3.1 nM, the Dmax [1, 2] is reported as 91.6% and the DC50 (Helios) is reported as ≥ 10000 nM.
With `O=C1CCC(N2Cc3cc(C4CCN(Cc5ccc6[nH]ccc6c5)CC4)c(F)cc3C2=O)C(=O)N1` (stereo not drawn) [Compound 89, 3-(5-(1-((1H-indol-5-yl)methyl)piperidin-4-yl)-6-fluoro-1-oxoisoindolin-2-yl)piperidine-2,6-dione] the DC50 [1] was 2.67 nM, the Dmax [1, 2] was 94.2% and the DC50 (Helios) was ≥ 10000 nM.
For `CS(=O)(=O)c1ccc(CN2CCC(c3cc4c(cc3F)C(=O)N(C3CCC(=O)NC3=O)C4)CC2)cc1` (stereo not drawn) [Compound 90, 3-(6-fluoro-5-(1-(4-(methylsulfonyl)benzyl)piperidin-4-yl)-1-oxoisoindolin-2-yl)piperidine-2,6-dione], the DC50 [1] was 4.68 nM, the Dmax [1, 2] was 93.1% and the DC50 (Helios) was ≥ 10000 nM.
With `O=C1CCC(N2Cc3cc(C4CCN(Cc5cccc6ncsc56)CC4)c(F)cc3C2=O)C(=O)N1` (stereo not drawn) [Compound 91, 3-(5-(1-(benzo[d]thiazol-7-ylmethyl)piperidin-4-yl)-6-fluoro-1-oxoisoindolin-2-yl)piperidine-2,6-dione] the DC50 [1] was 3.9 nM, the Dmax [1, 2] was 92.1% and the DC50 (Helios) was ≥ 10000 nM.
`O=C1CCC(N2Cc3c(cc(F)c(CNC(=O)c4ccc5c(c4)CCC5)c3F)C2=O)C(=O)N1` (stereo not drawn) [Compound 92, N-((2-(2,6-dioxopiperidin-3-yl)-4,6-difluoro-1-oxoisoindolin-5-yl)methyl)-2,3-dihydro-1H-indene-5-carboxamide] was tested, and the DC50 [1] was 9.16 nM, the Dmax [1, 2] was 63.2% and the DC50 (Helios) was ≥ 10000 nM.
`Cc1cc(-c2c(F)cc3c(c2F)CN(C2CCC(=O)NC2=O)C3=O)nc(N)c1C` (stereo not drawn) [Compound 93, 3-(5-(6-amino-4,5-dimethylpyridin-2-yl)-4,6-difluoro-1-oxoisoindolin-2-yl) piperidine-2,6-dione] was tested, and the DC50 [1] was 217 nM, the Dmax ([1]; Jurkat, 18 h) was 69.1% and the DC50 (Helios) was ≥ 10000 nM.
